Assay results: patent US20030125253A1, “Novel protein, process for producing the same and use therof” (priority 2002, published 2003)

What was measured:
Assay type in all cases: cell-based, human
SSP1 mRNA in HepG2 cell = test: Change of SSP1 mRNA expression in treated HepG2 cells (TaqMan PCR); conditions: 24 hours in serum free D-MEM medium with the agent, 25-OH 5 μg/ml, βVLDL 100 μg-TC/ml, HPβCD 5 mM, 10% FBS
Method: For conducting more detailed analysis of SSP1 expression, TaqMan PCR conditions were set. The primers used were Upper Primer (SEQ ID NO: 54) and Lower Primer (SEQ ID NO: 55), and the probe used for detection was shown by SEQ ID NO: 56. In TaqMan PCR, 250 nM of Upper Primer, 250 nM of Lower Primer, 75 nM of the probe and template DNA were mixed with TaqMan Universal Mixture, and SSP1 gene was quantified by real time PCR of 40 cycle of 15 seconds at 95° C. and 60 seconds at 60° C.
After HepG2 cell was treated as shown in FIG. 7 for one day, RNA was extracted to perform a reverse transcription using oligo-dT as a primer. Then, change in the expression amount of SSP1 mRNA was analyzed using the quantification system of expression amount of SSP1 mRNA as shown in Example 6. Specifically, HepG2 cells were cultured on a 24-well plate, and incubated for 24 hours in a serum free D-MEM medium in the presence of 10% FBS (10% FBS), 5 μg/ml of 25-hydroxycholesterol (25-OH), 100 μg-TC/ml of rabbit βVLDL (βVLDL), 1 μM of Atrvastatin (ATOS), 5 mM hydroxypropyl-β-cyclodextiin (HPβCD), 10 μM progesterone (Progesterone) or 100 μM dibutyl-cyclic AMP (db-cAMP). The expression amount of SSP1 mRNA in RNA extracted from these cells was measured as a rate (%) to GAPDH mRNA measured as the internal standard.

SSP2 mRNA in IMR-32 cell = test: Differentiation-dependent induction of SSP2 mRNA expression in IMR-32 cells (TaqMan PCR); conditions: 10 μM BrDU, cultured for 14 days, RNA at 7 and 14 days, cells differentiated to neuron in morphology
Method: For conducting more detailed analysis of SSP2 expression, TaqMan PCR conditions were set. The primers used were Upper Primer (SEQ ID NO: 57) and Lower Primer (SEQ ID NO: 58), and the probe used for detection was shown by SEQ ID NO: 59. In TaqMan PCR, 250 nM of Upper Primer, 250 nM of Lower Primer, 75 nM of the probe and template DNA were mixed with TaqMan Universal Mixture, and SSP2 gene was quantified by real time PCR of 40 cycle of 15 seconds at 95° C. and 60 seconds at 60° C. IMR-32 cells were cultured overnight at […] cells/well (6 well plate), and cultured for 14 days under four different conditions of 1 mM dibutyl cycle AMP (db-cAMP), 10 μM Bromo deoxyuridine (BrDU), 1 mM db-cAMP/10 μM BrDU and no differentiation-inducing agent. RNA was extracted from cells at 7 days and 14 days, then, SSP2 mRNA was quantified by TaqMan PCR. Induction of expression of SSP2 mRNA was recognized in cells which were differentiated to neuron in terms of morphology by 10 μM BrDU (FIG. 8).

[1] = tested on: stable SSP1-overexpressing HepG2 cell; test: ApoB lipoprotein secretion in stable SSP1-overexpressing HepG2 cells (sandwich EIA); conditions: SSP1 stable expression HepG2 cell strains vs parent HepG2, 24 hours, 5% LPDS + oleate (BSA complex)
Method: SSP1 gene was subcloned into pcDNA3.1(+)-myc vector (Invitrogen), and the thus obtained expression plasmid for eucaryotic cell having the C-terminal Myc-tag was transfected into HepG2 cells by a lipofection method, and these cells were cultured in the presence of 500 ug/ml G418 to obtain G418-resistant strains. From these strains, 4 stable cell strains highly expressing SSP1 mRNA were obtained using the quantification, of expression amount of SSP1 mRNA by TaqMan PCR. A gene encoding amino acid no. 33-273 of SSP1 protein was subcloned into pET 21(+) vector (Novagen), and using the SSP1 partial protein produced in Escherichia coli as an antigen, a polyclonal antibody was prepared according to an ordinary method. The amino acid sequence of the antigen protein is shown by SEQ ID NO: (antigen AP-1). Using this antibody (AP-1), the expression of SSP1 protein in cell-extract of the four stable SSP1-expressing cell strains was investigated by a Western blotting method. […] For quantification of ApoB lipoprotein, a sandwich EIA method using an anti-human apoB goat polyclonal antibody and an anti-human apoB mouse monoclonal antibody was carried out. In the quantification, human LDL was used as a standard substance, and the concentration of ApoB lipoprotein secreted in the supernatant was represented as an equivalent human LDL value. […]

Row | Molecule | change in the expression amount of SSP1 mRNA (rate to GAPDH mRNA) (SSP1 mRNA in HepG2 cell) | further results
1 | C[C@H](CCCC(C)(C)O)[C@H]1CC[C@H]2[C@@H]3CC=C4C[C@@H](O)CC[C@]4(C)[C@H]3CC[C@]12C [25OH, 25-hydroxycholesterol] | decrease | –
2 | O=c1[nH]c(=O)n([C@H]2C[C@H](O)[C@@H](CO)O2)cc1Br [BrDU, Bromo deoxyuridine] | – | induction of expression of SSP2 mRNA (SSP2 mRNA in IMR-32 cell): Induction
3 | CCCCCCCC/C=C\CCCCCCCC(=O)O [oleic acid] | – | activity to promote apoB lipoprotein secretion by addition of oleic acid [1]: disappeared
4 | hydroxypropyl-β-cyclodextiin [HPβCD] | increase | –
